Data as given in patent US20180092866A1, “SUBSTITUTED N-([1,1'-BIPHENYL]-3-YL)-[1,1'-BIPHENYL]-3-CARBOXAMIDE ANALOGS AS INHIBITORS FOR BETA-CATENIN/B-CELL LYMPHOMA 9 INTERACTIONS” (University of Utah Research Foundation, priority 2015, published 2018).
Where a name gives a salt, the structure may show the parent alone.

Target: T1, β-catenin/BCL9 protein-protein interactions (Homo sapiens, UniProt P35222)
T1 construct: C-terminally His6-tagged wild-type or mutant β-catenin (residues 138-686) proteins; made in house; host or cells: E. coli BL21 DE3
T1 sequence (P35222 138-686): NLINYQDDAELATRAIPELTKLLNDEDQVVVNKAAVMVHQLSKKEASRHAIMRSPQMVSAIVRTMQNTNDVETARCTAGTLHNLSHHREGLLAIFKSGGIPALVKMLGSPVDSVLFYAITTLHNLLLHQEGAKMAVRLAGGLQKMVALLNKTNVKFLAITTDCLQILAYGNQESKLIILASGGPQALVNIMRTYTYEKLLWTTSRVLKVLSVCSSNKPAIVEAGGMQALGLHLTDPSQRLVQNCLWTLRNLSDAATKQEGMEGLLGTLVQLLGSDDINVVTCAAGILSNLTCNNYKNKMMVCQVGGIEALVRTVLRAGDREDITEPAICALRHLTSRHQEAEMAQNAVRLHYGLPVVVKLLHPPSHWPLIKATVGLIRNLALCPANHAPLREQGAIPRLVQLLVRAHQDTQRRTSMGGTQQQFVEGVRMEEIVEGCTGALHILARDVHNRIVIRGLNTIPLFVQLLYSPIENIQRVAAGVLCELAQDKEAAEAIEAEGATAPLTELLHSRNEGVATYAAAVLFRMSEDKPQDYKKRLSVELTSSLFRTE
Test: AlphaScreen competitive inhibition assay, wild-type β-catenin/BCL9
Format: binding
Conditions: for Ki: wild-type β-catenin (residues 138-686)/biotinylated BCL9 26-mer, Ki derived from IC50, mean ± SD; for fold less potent than 17: relative to compound 17
Description: The purity of the wild-type and mutant β-catenin proteins was all greater than 95% as determined by the SDS-PAGE gel analysis. Both the wild-type and mutant β-catenin proteins are stable under the testing conditions. Native non-denaturing gel electrophoresis was performed to confirm the homogeneity of the purified proteins. Experiments were performed in white opaque 384-well plates from PerkinElmer, and the samples were read on a Synergy 2 plate reader (Biotek) with a sensitivity setting of 200 using AlphaScreen protocol with excitation at 680 nm and emission at 570 nm. All dilutions were made in 1×assay buffer containing 25 mM HEPES (pH=7.0), 100 mM NaCl, 0.01% Triton X-100, and 0.1% BSA. In the AlphaScreen competitive inhibition assay, 40 nM of C-terminally His6-tagged wild-type or mutant β-catenin (residues 138-686) proteins was incubated with 5 nM of N-terminal biotinylated human BCL9 26-mer (residues 350-375) for 30 min at 4° C., and then different concentrations of the tested inhibitors in the assay buffer were added to make a final volume of 20 μL. The mixture was incubated at 4° C. for 2 h. The donor and acceptor beads were added to a final concentration of 10 μg/mL in 25 μL of assay buffer. The mixture was incubated at 4° C. for 1 h. The IC50 value was determined by nonlinear least-square analysis of GraphPad Prism 5.0. […] The Ki values were derived from the IC50 values by a reported method (Nikolovska-Coleska et al. (2004) Anal. Biochem. […]: 261-273). Experiments were performed in triplicate and carried out in the presence of 1% DMSO.

Structure (SMILES)	Ki [µM]	fold less potent than 17 (AlphaScreen assay) [fold]	relative inhibitory potency for β-catenin/BCL9 PPIs (in words) (AlphaScreen assay, comparison with named compound)
Cc1cc(F)ccc1-c1cc(NC(=O)c2ccc(O[C@H]3CCNC3)c(-c3ccc(F)c(F)c3)c2)ccc1O[C@H]1CCNC1 [Compound 91j, 3′,4′-Difluoro-N-(4′-fluoro-2′-methyl-6-((S)-pyrrolidin-3-yloxy)-[1,1′-biphenyl]-3-yl)-6-((S)-pyrrolidin-3-yloxy)-[1,1′-biphenyl]-3-carboxamide dihydrochloride]	27.3 ± 4.83	–	–
O=C(Nc1ccc(O[C@H]2CCNC2)c(-c2ccc(F)cc2)c1)c1ccc(O[C@H]2CCNC2)c(-c2ccc3ccccc3c2)c1 [Compound 25, (S)-3-((4′-fluoro-5-(3-(naphthalen-2-yl)-4-((S)-pyrrolidin-1-ium-3-yloxy)benzamido)-[1,1′-biphenyl]-2-yl)oxy) pyrrolidin-1-ium chloride]	8.45 ± 2.65	–	–
NCCOc1ccc(C(=O)Nc2cccc(-c3ccc(Cl)c(F)c3)c2)cc1-c1ccc(F)cc1 [Compound 11, 2-((5-((4′-Chloro-3′-fluoro-[1,1′-biphenyl]-3-yl)carbamoyl)-4′-fluoro-[1,1′-biphenyl]-2-yl)oxy) ethanaminium chloride]	87.1 ± 4.95	–	–
O=C(Nc1ccc(O[C@@H]2CCNC2)c(-c2ccc(F)cc2)c1)c1ccc(O[C@H]2CCNC2)c(-c2ccc(F)c(F)c2)c1 [Compound 28, (S)-3-((3′,4′-difluoro-5-((4′-fluoro-6-(((R)-pyrrolidin-1-ium-3-yl)oxy)-[1,1′-biphenyl]-3-yl)carbamoyl)-[1,1′-biphenyl]-2-yl)oxy) pyrrolidin-1-ium chloride]	3.41 ± 0.354	–	–
O=C(Nc1ccc(OCCO)c(-c2ccc(F)cc2)c1)c1ccc(OCCO)c(-c2ccc(F)c(F)c2)c1 [Compound 18, 3′,4′-Difluoro-N-(4′-fluoro-6-(2-hydroxyethoxy)-[1,1′-biphenyl]-3-yl)-6-(2-hydroxyethoxy)-[1,1′-biphenyl]-3-carboxamide]	36.8 ± 2.72	6	–
O=C(Nc1ccc(O[C@H]2CCNC2)c(-c2ccc(F)cc2)c1)c1ccc(O[C@H]2CCNC2)c(-c2ccc3cc(F)ccc3c2)c1 [Compound 96]	7.17 ± 1.3	–	–
O=C(Nc1ccc(O[C@@H]2CCNC2)c(-c2ccc(F)cc2)c1)c1ccc(O[C@@H]2CCNC2)c(-c2ccc(F)c(F)c2)c1 [Compound 26, (R)-3-((3′,4′-difluoro-5-((4′-fluoro-6-(((R)-pyrrolidin-1-ium-3-yl)oxy)-[1,1′-biphenyl]-3-yl)carbamoyl)-[1,1′-biphenyl]-2-yl)oxy) pyrrolidin-1-ium chloride]	4.08 ± 0.355	–	–

The remaining lines, values ahead:

Ki [µM]	fold less potent than 17 (AlphaScreen assay) [fold]	relative inhibitory potency for β-catenin/BCL9 PPIs (in words) (AlphaScreen assay, comparison with named compound)	Structure (SMILES)
162 ± 8.69	–	–	NC(=O)c1cccc(-c2cc(NC(=O)c3ccc(O[C@H]4CCNC4)c(-c4ccc(F)c(F)c4)c3)ccc2O[C@H]2CCNC2)c1 [Compound 91g, N-(3′-carbamoyl-6-((S)-pyrrolidin-3-yloxy)-[1,1′-biphenyl]-3-yl)-3′,4′-difluoro-6-((S)-pyrrolidin-3-yloxy)-[1,1′-biphenyl]-3-carboxamide dihydrochloride]
201 ± 9.29	–	–	Cc1cc(C(=O)Nc2ccc(O[C@H]3CCNC3)c(-c3ccc(F)cc3)c2)ccc1O[C@H]1CCNC1 [Compound 24, (S)-3-((4′-fluoro-5-(3-methyl-4-((S)-pyrrolidin-1-ium-3-yloxy)benzamido)-[1,1′-biphenyl]-2-yl)oxy) pyrrolidin-1-ium chloride]
9.5 ± 1.12	–	–	O=C(Nc1ccc(O[C@H]2CCNC2)c(-c2ccc(F)cc2)c1)c1ccc(O[C@H]2CCNC2)c(-c2ccc3ccsc3c2)c1 [Compound 97]
156 ± 3.96	–	–	O=C(O)c1ccc(-c2cc(NC(=O)c3ccc(O[C@H]4CCNC4)c(-c4ccc(F)c(F)c4)c3)ccc2O[C@H]2CCNC2)cc1 [Compound 99]
–	–	less potent than 6	NC(=O)c1ccc(CCCO)c(-c2ccc(F)cc2)c1 [Compound 8, 4′-Fluoro-6-(3-hydroxypropyl)-[1,1′-biphenyl]-3-carboxamide]
–	65	–	Cc1ccc(NC(=O)c2ccc(C)c(-c3ccc(F)c(F)c3)c2)cc1-c1ccc(F)cc1 [Compound 19, 3′,4′-Difluoro-N-(4′-fluoro-6-methyl-[1,1′-biphenyl]-3-yl)-6-methyl-[1,1′-biphenyl]-3-carboxamide]
